Reference: US8575188B2 (priority 2009, dated 2013)

system: human non small cell lung cancer H-460; assay: Xenograft model, subcutaneous, tumor growth inhibition and body weight loss; details: H460, PO, QD × 5/wk, 2 weeks, 40 mg/Kg
Protocol: The first three models were produced by subcutaneous implantation of the appropriate number of cells into the flank of the animals. When tumor size was approximately 150 mm^3, animals were randomized into groups of 10 mice each for dosing. One arm was dosed with only vehicle and the results used for the efficacy calculations. […] TGI=(1−T/C) %. T/C ratio was calculated as T/C=(Tn−Ti)/(Cn−Ci), where Tn is tumor volume in treatment group on Day n, and Ti is the initial tumor volume in the treatment group. Cn is the tumor volume of the vehicle group on the last day of measurement. Ci is the initial tumor volume in the vehicle control group. Day n is the last measurement taken when all the animals in the vehicle group were not yet euthanized. Animals were euthanized when tumor volumes grew larger than 2000 mm^3.

Row | SMILES | TGI (%)
1 | CCCc1c2c(nc3ccccc13)-c1c([N+](=O)[O-])c3c(c(=O)n1C2)COC(=O)[C@]3(O)CC [TH1650] | 85%

same assay, conditions: mouse, in vivo, po, 40 mg/kg

Row | SMILES | Max. BWL (%)
2 | CCCc1c2c(nc3ccccc13)-c1c([N+](=O)[O-])c3c(c(=O)n1C2)COC(=O)[C@]3(O)CC [TH1650] | 6.7%

system: not listed separately; assay: In vivo pharmacokinetics, oral gavage; details: CD-mice, oral gavage
Protocol: The data normalized to a 50 mg/kg dose are shown below (compounds were dosed at either 25 or 50 mg/kg).

Row | SMILES | half-life
3 | CC[C@@]1(O)C(=O)OCc2c1cc1n(c2=O)Cc2cc3ccccc3nc2-1 [Camptothecin, reference compound] | 1.98 h

same assay, conditions: CD-mice, oral gavage, 5% DMSO, 5% Tween 80 suspension in water, normalized to a 50 mg/kg dose

Row | SMILES | Cmax
4 | CC[C@@]1(O)C(=O)OCc2c1cc1n(c2=O)Cc2cc3ccccc3nc2-1 [Camptothecin, reference compound] | 374 ng/mL

same assay, conditions: CD-mice, oral gavage, normalized to a 50 mg/kg dose

Row | SMILES | AUC
5 | CC[C@@]1(O)C(=O)OCc2c1cc1n(c2=O)Cc2cc3ccccc3nc2-1 [Camptothecin, reference compound] | 58.1 µg·min/mL

system: BCRP, which over expressed the breast cancer resistance protein; assay: Efflux pump drug resistance, antiproliferation assay, BCRP over expressing line; details: ratio of IC50s, BCRP versus pcDNA
Protocol: The compounds were screened for cytotoxicity using human non small cell lung cancer cell line H460. […]
Cellular drug resistance was determined using the antiproliferation assay described above.

Row | SMILES | ratio BCRP over expressing line versus the parent cell line
6 | CC[C@@]1(O)C(=O)OCc2c1cc1n(c2=O)Cc2cc3ccccc3nc2-1 [Camptothecin, reference compound] | 1.6

system: human non small cell lung cancer cell line H460; assay: Antiproliferation (cytotoxicity) assay, 72 hrs under air, Alamar Blue; format: cell-based; details: H460, inhibition of proliferation, 72 hrs under air; read-out: IC50

Row | SMILES | IC50
7 | CC[C@@]1(O)C(=O)OCc2c1cc1n(c2=O)Cc2cc3ccccc3nc2-1 [Camptothecin, reference compound] | 14 nM

same assay, conditions: Homo sapiens, NCI-H460, 72 h

Row | SMILES | IC50
8 | CC[C@@]1(O)C(=O)OCc2c1c([N+](=O)[O-])c1n(c2=O)Cc2c-1nc1ccccc1c2CO[N+](=O)[O-] [TH1598] | 89 nM

same assay, conditions: Homo sapiens, NCI-H460; H460, inhibition of proliferation, 72 hrs under air; read-out: IC50

Row | SMILES | IC50
9 | CC[C@@]1(O)C(=O)OCc2c1c(N)c1n(c2=O)Cc2c-1nc1ccccc1c2/C=N/N(CCO)C(C)=O [TH1783] | 460 nM
10 | CC[C@@]1(O)C(=O)OCc2c1c([N+](=O)[O-])c1n(c2=O)Cc2c-1nc1ccccc1c2/C=N/c1ccccc1O [TH1803] | 3600 nM
11 | CC[C@@]1(O)C(=O)OCc2c1c(N)c1n(c2=O)Cc2c-1nc1ccccc1c2C(OC)OC [TH1785] | 39 nM
12 | CC[C@@]1(O)C(=O)OCc2c1c(N)c1n(c2=O)Cc2c-1nc1ccccc1c2CCC(=O)OC(C)(C)C [TH1790] | 46 nM
13 | CC[C@@]1(O)C(=O)OCc2c1c([N+](=O)[O-])c1n(c2=O)Cc2c-1nc1ccccc1c2/C=N/c1ccc(C(C)(C)C)cc1 [TH1804] | > 50000 nM
14 | CC[C@@]1(O)C(=O)OCc2c1c([N+](=O)[O-])c1n(c2=O)Cc2c-1nc1ccccc1c2CC[Si](C)(C)C [TH1626] | > 1000 nM
15 | CC[C@@]1(O)C(=O)OCc2c1c([N+](=O)[O-])c1n(c2=O)Cc2c-1nc1ccccc1c2/C=N/OCCN(C)C [TH1522] | > 1000 nM
16 | CC[C@@]1(O)C(=O)OCc2c1c([N+](=O)[O-])c1n(c2=O)Cc2c-1nc1ccccc1c2/C=N/N(CCOS(C)(=O)=O)S(C)(=O)=O [TH1798] | 2500 nM
17 | CC[C@@]1(O)C(=O)OCc2c1c(N)c1n(c2=O)Cc2c-1nc1ccccc1c2/C=N/N(CCO)C(=O)C(C)(C)C [TH1793] | 19 nM
18 | CC[C@@]1(O)C(=O)OCc2c1c(N)c1n(c2=O)Cc2c-1nc1ccccc1c2/C=N/N1CCOCC1 [TH1777] | 16 nM
19 | C=CCO/N=C/c1c2c(nc3ccccc13)-c1c([N+](=O)[O-])c3c(c(=O)n1C2)COC(=O)[C@]3(O)CC [TH1771] | > 10000 nM
20 | CC[C@@]1(O)C(=O)OCc2c1c([N+](=O)[O-])c1n(c2=O)Cc2c-1nc1ccccc1c2/C=C/N1CCN(C)CC1 [TH1770] | 9100 nM
21 | CCOC(=O)CCc1c2c(nc3ccccc13)-c1c(N)c3c(c(=O)n1C2)COC(=O)[C@]3(O)CC [TH1787] | 12 nM
22 | CC[C@@]1(O)C(=O)OCc2c1c(N)c1n(c2=O)Cc2c-1nc1ccccc1c2/C=N/NCCO [TH1778] | 270 nM
23 | CC[C@@]1(O)C(=O)OCc2c1c(N)c1n(c2=O)Cc2c-1nc1ccccc1c2CC[Si](C)(C)O [TH1628] | 62 nM
24 | CC[C@@]1(O)C(=O)OCc2c1c(N)c1n(c2=O)Cc2c-1nc1ccccc1c2CC[Si](C)(C)C [TH1631] | 7.4 nM
25 | CC[C@@]1(O)C(=O)OCc2c1c([N+](=O)[O-])c1n(c2=O)Cc2c-1nc1ccccc1c2/C=N/N(CCO)C(=O)C(C)(C)C [TH1791] | 4000 nM
26 | CCOC(=O)/C=C/c1c2c(nc3ccccc13)-c1c([N+](=O)[O-])c3c(c(=O)n1C2)COC(=O)[C@]3(O)CC [TH1781] | 28000 nM
27 | CC[C@@]1(O)C(=O)OCc2c1c([N+](=O)[O-])c1n(c2=O)Cc2cc3c([N+](=O)[O-])cccc3nc2-1 [TH1385] | > 1000 nM
28 | CC[C@@]1(O)C(=O)OCc2c1c([N+](=O)[O-])c1n(c2=O)Cc2c-1nc1ccccc1c2/C=N/c1c(F)c(F)c(O)c(F)c1F [TH1805] | 49000 nM
29 | CC[C@@]1(O)C(=O)OCc2c1c([N+](=O)[O-])c1n(c2=O)Cc2c-1nc1ccccc1c2C#N [TH1766] | > 1000 nM
30 | CC[C@@]1(O)C(=O)OCc2c1c(N)c1n(c2=O)Cc2c-1nc1ccccc1c2/C=N/N1CCN(C)CC1 [TH1775] | 26 nM
31 | CCOC(=O)/C=C/c1c2c(nc3ccccc13)-c1c(N)c3c(c(=O)n1C2)COC(=O)[C@]3(O)CC [TH1789] | 31 nM
32 | CC[C@@]1(O)C(=O)OCc2c1c([N+](=O)[O-])c1n(c2=O)Cc2c-1nc1ccccc1c2C=O [TH1762, 7-formyl-14-nitro camptothecin] | 7200 nM
33 | CC[C@@]1(O)C(=O)OCc2c1c([N+](=O)[O-])c1n(c2=O)Cc2c-1nc1ccccc1c2/C=N/N(CCO)C(C)=O [TH1780] | 28000 nM
34 | CC[C@@]1(O)C(=O)OCc2c1c([N+](=O)[O-])c1n(c2=O)Cc2c-1nc1ccccc1c2/C=N/OCC1CO1 (some centres unmarked) [TH1776] | 3200 nM

Row | SMILES | IC50
35 | CC[C@@]1(O)C(=O)OCc2c1c(N)c1n(c2=O)Cc2c-1nc1ccccc1c2/C=N/N(CCOS(C)(=O)=O)S(C)(=O)=O [TH1799] | 8.1 nM
36 | CC[C@@]1(O)C(=O)OCc2c1c([N+](=O)[O-])c1n(c2=O)Cc2c-1nc1cccc([N+](=O)[O-])c1c2Br [TH1636] | 6200 nM
37 | CC[C@@]1(O)C(=O)OCc2c1c(N)c1n(c2=O)Cc2c-1nc1ccccc1c2/C=N/c1ccc(C(C)(C)C)cc1 [TH1809] | 1400 nM
38 | CC[C@@]1(O)C(=O)OCc2c1c([N+](=O)[O-])c1n(c2=O)Cc2c-1nc1cccc([N+](=O)[O-])c1c2/C=N/OCCN1CCOCC1 [TH1523] | 830 nM
39 | CC[C@@]1(O)C(=O)OCc2c1c(N)c1n(c2=O)Cc2c-1nc1ccccc1c2/C=N/N1CCOCOC1 [TH1816] | 23 nM
40 | CC[C@@]1(O)C(=O)OCc2c1c([N+](=O)[O-])c1n(c2=O)Cc2c-1nc1ccccc1c2/C=C/C(C)=O [TH1784] | 4900 nM
41 | CC[C@@]1(O)C(=O)OCc2c1c([N+](=O)[O-])c1n(c2=O)Cc2c-1nc1ccccc1c2/C=N/N1CCOCC1 [TH1767] | 6000 nM
42 | CC[C@@]1(O)C(=O)OCc2c1c([N+](=O)[O-])c1n(c2=O)Cc2c-1nc1ccccc1c2/C=N/NCCO [TH1768] | 6600 nM
43 | CC[C@@]1(O)C(=O)OCc2c1c(N)c1n(c2=O)Cc2c-1nc1ccccc1c2/C=N/N(CCO)C(=O)c1ccccc1 [TH1800] | 220 nM
44 | CC[C@@]1(O)C(=O)OCc2c1c([N+](=O)[O-])c1n(c2=O)Cc2c-1nc1ccccc1c2/C=N/OCCN1CCCCC1 [TH1524] | > 1000 nM
45 | CCCc1c2c(nc3ccccc13)-c1c([N+](=O)[O-])c3c(c(=O)n1C2)COC(=O)[C@]3(O)CC [TH1650] | 685 nM
46 | CC[C@@]1(O)C(=O)OCc2c1c(N)c1n(c2=O)Cc2c-1nc1ccccc1c2CO [TH1599] | 4.3 nM
47 | CC[C@@]1(O)C(=O)OCc2c1c([N+](=O)[O-])c1n(c2=O)Cc2c-1nc1ccccc1c2/C=N/N(CCO)C(=O)C(C)C [TH1794] | 2300 nM
48 | CC[C@@]1(O)C(=O)OCc2c1c(N)c1n(c2=O)Cc2c-1nc1ccccc1c2CN [TH1769] | 330 nM
49 | CC[C@@]1(O)C(=O)OCc2c1c([N+](=O)[O-])c1n(c2=O)Cc2c-1nc1ccccc1c2CC[Si](C)(C)O [TH1627] | > 1000 nM
50 | CC[C@@]1(O)C(=O)OCc2c1c([N+](=O)[O-])c1n(c2=O)Cc2c-1nc1ccccc1c2CC(C)(C)C [TH1644] | 800 nM
51 | CC[C@@]1(O)C(=O)OCc2c1c(N)c1n(c2=O)Cc2c-1nc1ccccc1c2CNCC(C)(C)C [TH1814] | 15 nM
52 | CC[C@@]1(O)C(=O)OCc2c1c([N+](=O)[O-])c1n(c2=O)Cc2c-1nc1cccc([N+](=O)[O-])c1c2/C=N/OCCN1CCCCC1 [TH1525] | > 1000 nM
53 | CC[C@@]1(O)C(=O)OCc2c1c([N+](=O)[O-])c1n(c2=O)Cc2c-1nc1ccccc1c2/C=C/C(=O)OC(C)(C)C [TH1786] | 21000 nM
54 | CC[C@@]1(O)C(=O)OCc2c1c(N)c1n(c2=O)Cc2c-1nc1ccccc1c2CC(C)(C)C [TH1643] | 43 nM
55 | CC[C@@]1(O)C(=O)OCc2c1c([N+](=O)[O-])c1n(c2=O)Cc2c-1nc1ccccc1c2/C=N/N1CCOCOC1 [TH1812] | 2800 nM
56 | CC[C@@]1(O)C(=O)OCc2c1c(N)c1n(c2=O)Cc2c-1nc1ccccc1c2/C=N/N(CCO)C(=O)C(C)C [TH1796] | 12 nM
57 | CC[C@@]1(O)C(=O)OCc2c1c([N+](=O)[O-])c1n(c2=O)Cc2c-1nc1ccccc1c2/C=N/N(CCO)C(=O)c1ccccc1 [TH1797] | 40000 nM
58 | CC[C@@]1(O)C(=O)OCc2c1c(N)c1n(c2=O)Cc2c-1nc1ccccc1c2C#N [TH1801] | 23 nM
59 | CC[C@@]1(O)C(=O)OCc2c1c(N)c1n(c2=O)Cc2c-1nc1ccccc1c2/C=C/C(=O)OC(C)(C)C [TH1811] | 14 nM
